Results taken from the supplement of paper PMC10307832.

Columns and labels:
Assay in all cases: relative viability (nuclei count vs DMSO), 5 days (fraction); higher = more cells survive
R406 + Navitoclax = compound: COc1cc(Nc2ncc(F)c(Nc3ccc4c(n3)NC(=O)C(C)(C)O4)n2)cc(OC)c1OC [R406] + CC1(C)CCC(c2ccc(Cl)cc2)=C(CN2CCN(c3ccc(C(=O)NS(=O)(=O)c4ccc(N[C@H](CCN5CCOCC5)CSc5ccccc5)c(S(=O)(=O)C(F)(F)F)c4)cc3)CC2)C1 [Navitoclax] (partner 0.5 µM)
Method in brief: (§1)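 Lung cancer cell lines in 1536-well plates got either a single drug or a fixed anchor-drug dose together with five library-drug doses (not always all listed) in √10 steps, by pin tool, on the day after seeding. Nuclei were counted after 5 days, and relative viability is the treated-to-vehicle ratio of nuclei counts. Values are medians of duplicate plates.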

Daporinad + Phenformin = compound: O=C(/C=C/c1cccnc1)NCCCCC1CCN(C(=O)c2ccccc2)CC1 [Daporinad] + N=C(N)NC(=N)NCCc1ccccc1 [Phenformin] (partner 250 µM)
Method in brief: as §1

R406 = compound: COc1cc(Nc2ncc(F)c(Nc3ccc4c(n3)NC(=O)C(C)(C)O4)n2)cc(OC)c1OC [R406]
Method in brief: (§2)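 On vehicle-anchored 1536-well plates, lung cancer cell lines held overnight at 37 °C were pinned with five library-drug doses (not always all listed) spaced by √10. With no medium change over 5 days, they were then fixed, permeabilised and Hoechst-stained in one step and imaged at 4×. MetaXpress counted nuclei, and viability is the median across plates of treated-well over vehicle-well nuclei. Acceptance needed control CV below 25% and at least one doubling.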

Daporinad = compound: O=C(/C=C/c1cccnc1)NCCCCC1CCN(C(=O)c2ccccc2)CC1 [Daporinad]
Method in brief: as §2

Cell Line | relative viability (R406 + Navitoclax; first compound 0.08 µM) | relative viability (R406 + Navitoclax; first compound 0.253 µM) | relative viability (R406 + Navitoclax; first compound 0.8 µM) | relative viability (R406 + Navitoclax; first compound 2.53 µM) | relative viability (R406 + Navitoclax; first compound 8 µM) | relative viability (Daporinad + Phenformin; first compound 0.0005 µM) | relative viability (Daporinad + Phenformin; first compound 0.001581 µM) | relative viability (Daporinad + Phenformin; first compound 0.005 µM) | relative viability (Daporinad + Phenformin; first compound 0.01581 µM) | relative viability (R406; 0.08 µM) | relative viability (R406; 0.253 µM) | relative viability (R406; 0.8 µM) | relative viability (R406; 2.53 µM) | relative viability (R406; 8 µM) | relative viability (Daporinad; 0.0005 µM) | relative viability (Daporinad; 0.001581 µM) | relative viability (Daporinad; 0.005 µM) | relative viability (Daporinad; 0.01581 µM)
NCI-H3122 | 1.06 | 0.971 | 1.02 | 1.02 | 0.82 | 0.36 | 0.391 | 0.387 | 0.333 | 0.948 | 1 | 0.989 | 0.945 | 0.977 | 0.955 | 1 | 1.05 | 0.984
HCC-827 | 1.04 | 0.952 | 0.949 | 0.932 | 0.489 | 0.442 | 0.478 | 0.421 | 0.461 | 1.09 | 1.07 | 1.1 | 0.903 | 0.672 | 1.02 | 1.06 | 1.03 | 1.1
SW 1573 | 0.956 | 1.1 | 1.2 | 0.794 | 0.5 | 0.352 | 0.383 | 0.232 | 0.18 | 1.02 | 1.11 | 1.11 | 0.803 | 0.543 | 1.02 | 1.15 | 0.929 | 0.678
NCI-H1975 | 1.02 | 1.2 | 1.19 | 0.503 | 0.237 | 0.435 | 0.404 | 0.457 | 0.401 | 0.848 | 1.03 | 1.02 | 0.479 | 0.385 | 1.05 | 0.916 | 1.01 | 0.968
NCI-H1651 | 1.08 | 1.29 | 0.961 | 0.769 | 0.463 | 0.299 | 0.381 | 0.433 | 0.329 | 0.926 | 1.1 | 1.05 | 0.899 | 0.667 | 1.01 | 1.03 | 1.05 | 0.874
NCI-H460 | 1.16 | 1.35 | 1.25 |  | 0.476 | 0.472 | 0.575 | 0.533 | 0.523 | 0.965 | 1.11 | 1.09 | 0.966 | 0.766 | 0.996 | 1.02 | 0.953 | 1.02
LCLC-97TM1 | 0.375 | 0.511 | 0.519 | 0.254 | 0.462 | 0.414 | 0.454 | 0.485 | 0.458 | 0.885 | 1.18 | 0.964 | 0.804 | 0.632 | 0.948 | 1.15 | 1.07 | 0.941
NCI-H838 | 1.14 | 1.23 | 1.34 | 0.802 | 0.305 | 0.551 | 0.799 | 0.542 | 0.415 | 0.911 | 1.08 | 1.11 | 0.544 | 0.214 | 0.999 | 1.03 | 1.04 | 0.657
NCI-H1355 | 1.05 | 0.94 | 1.08 | 0.542 | 0.648 | 0.454 | 0.506 | 0.542 | 0.508 | 0.977 | 1.13 | 1.11 | 0.626 | 0.61 | 0.968 | 1.13 | 1.14 | 1.03
HOP-62 | 0.937 | 0.985 | 1.11 | 1.1 | 1.06 | 0.493 | 0.746 | 0.765 | 0.526 | 0.998 | 1.16 | 0.97 | 1.04 | 1.09 | 0.94 | 1.08 | 1.03 | 0.491
NCI-H2085 | 1.13 | 1.16 | 1.28 | 1.01 | 0.667 | 0.816 | 0.855 | 0.796 | 0.816 | 0.99 | 1.06 | 1.1 | 0.823 | 0.736 | 0.984 | 1.02 | 1.08 | 1.18
